Activity calls are given as the source filed them.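 How the source made its calls: active means a rising curve with AC50 no higher than ten times the top valid dose of that compound; inconclusive means flat curve between 30 and 70 percent, or failed fit; inactive means the rest.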
Assay: protection from cytokine-driven beta-cell apoptosis, dose response, JC-1 fluorescence, INS-1E, dry powder, set 2 (AID 488867)
Conditions: INS-1E cytokine-induced apoptosis, JC-1 mitochondrial potential, 48 h; at 23.5 µM (top of the series)
For `C[C@@H]1CN([C@@H](C)CO)C(=O)c2cccc(NC(=O)Nc3cccc4ccccc34)c2O[C@H]1CN(C)C(=O)Nc1ccccc1`, the protection from cytokine-induced depolarization was 2.8% (inactive).
In the case of `COc1ccc(S(=O)(=O)N(C)C[C@@H]2Oc3c(NC(=O)C4CC4)cccc3C(=O)N([C@@H](C)CO)C[C@H]2C)cc1`, the protection from cytokine-induced depolarization is reported as -7.4% (inactive).
For `COc1ccc(S(=O)(=O)N(C)C[C@@H]2Oc3c(NC(=O)C4CCOCC4)cccc3C(=O)N([C@@H](C)CO)C[C@H]2C)cc1`, the protection from cytokine-induced depolarization was 3.35% (inactive).
With `COc1ccc(S(=O)(=O)N(C)C[C@@H]2Oc3c(NS(=O)(=O)c4ccc(C)cc4)cccc3C(=O)N([C@@H](C)CO)C[C@H]2C)cc1` the protection from cytokine-induced depolarization was -2.55% (inactive).
In the case of `C[C@@H]1CN([C@@H](C)CO)C(=O)c2cccc(NC(=O)Nc3cccc4ccccc34)c2O[C@H]1CN(C)C(=O)Nc1ccc(C(F)(F)F)cc1`, the protection from cytokine-induced depolarization is reported as 7.29% (inactive).

Same assay, conditions: INS-1E cytokine-induced apoptosis, JC-1 mitochondrial potential, 48 h; at 26 µM (top of the series)
In the case of `Cc1ccc(S(=O)(=O)N(C)C[C@@H]2Oc3c(NC(=O)Nc4ccc(F)cc4)cccc3C(=O)N([C@@H](C)CO)C[C@H]2C)cc1`, the protection from cytokine-induced depolarization is reported as 10.4% (inactive).
For `C[C@@H]1CN([C@@H](C)CO)C(=O)c2cccc(NC(=O)Nc3ccc(F)cc3)c2O[C@H]1CN(C)S(=O)(=O)c1ccc(Cl)cc1`, the protection from cytokine-induced depolarization was 8.02% (inactive).
For `Cc1noc(C)c1NC(=O)N(C)C[C@@H]1Oc2c(NC(=O)Nc3cccc4ccccc34)cccc2C(=O)N([C@@H](C)CO)C[C@H]1C`, the protection from cytokine-induced depolarization was 12.1% (inactive).
In the case of `COc1ccc(S(=O)(=O)N(C)C[C@@H]2Oc3c(NC(=O)Nc4ccc(F)cc4)cccc3C(=O)N([C@H](C)CO)C[C@H]2C)cc1`, the protection from cytokine-induced depolarization is reported as 10.8% (inactive).
In the case of `COc1ccc(S(=O)(=O)N(C)C[C@@H]2Oc3c(NC(=O)Nc4cccc5ccccc45)cccc3C(=O)N([C@@H](C)CO)C[C@H]2C)cc1F`, the protection from cytokine-induced depolarization is reported as -3.4% (inactive).
For `COc1ccc(S(=O)(=O)N(C)C[C@@H]2Oc3c(NC(=O)c4nc5ccccc5s4)cccc3C(=O)N([C@@H](C)CO)C[C@H]2C)cc1`, the protection from cytokine-induced depolarization was -8.58% (inactive).
In the case of `C[C@@H]1CN([C@@H](C)CO)C(=O)c2cccc(NC(=O)Nc3cccc(Cl)c3Cl)c2O[C@H]1CN(C)S(=O)(=O)c1ccc2c(c1)OCCO2`, the protection from cytokine-induced depolarization is reported as 8.05% (inactive).
With `C[C@H]1CN([C@@H](C)CO)C(=O)c2cccc(NC(=O)NC3CCCCC3)c2O[C@@H]1CN(C)S(C)(=O)=O` the protection from cytokine-induced depolarization was -1.29% (inactive).
With `COc1ccc(S(=O)(=O)N(C)C[C@@H]2Oc3c(NC(=O)Nc4cccc5ccccc45)cccc3C(=O)N([C@@H](C)CO)C[C@H]2C)cc1Cl` the protection from cytokine-induced depolarization was -12% (inactive).
With `C[C@@H]1CN([C@@H](C)CO)C(=O)c2cccc(NC(=O)Nc3cccc4ccccc34)c2O[C@H]1CN(C)S(=O)(=O)c1ccc2c(c1)oc(=O)n2C` the protection from cytokine-induced depolarization was -5.34% (inactive).
With `C[C@@H]1CN([C@H](C)CO)C(=O)c2cccc(NC(=O)Nc3ccccc3)c2O[C@H]1CN(C)S(=O)(=O)c1ccc(Cl)cc1` the protection from cytokine-induced depolarization was 15.6% (inactive).
In the case of `C[C@@H]1CN([C@@H](C)CO)C(=O)c2cccc(NC(=O)Nc3ccc(F)cc3)c2O[C@H]1CN(C)S(=O)(=O)c1ccc(F)cc1`, the protection from cytokine-induced depolarization is reported as 11.7% (inactive).
In the case of `C[C@@H]1CN([C@@H](C)CO)C(=O)c2cccc(NC(=O)Nc3cccc4ccccc34)c2O[C@H]1CN(C)S(=O)(=O)c1ccc2c(c1)OCO2`, the protection from cytokine-induced depolarization is reported as 32.4% (inactive).
In the case of `C[C@@H]1CN([C@@H](C)CO)C(=O)c2cccc(NC(=O)Nc3cccc4ccccc34)c2O[C@H]1CN(C)C(=O)Nc1ccc2c(c1)OCO2`, the protection from cytokine-induced depolarization is reported as -3.61% (inactive).
With `N#Cc1ccc2cc(Br)c(C(F)(F)P(=O)(O)O)cc2c1` the protection from cytokine-induced depolarization was -2.22% (inactive).
With `COc1ccc(NC(=O)Nc2cccc3c2O[C@@H](CN(C)S(=O)(=O)c2ccc(OC)cc2)[C@H](C)CN([C@@H](C)CO)C3=O)cc1` the protection from cytokine-induced depolarization was 0.556% (inactive).
With `COc1ccc(S(=O)(=O)N(C)C[C@@H]2Oc3c(NC(=O)Nc4cccc5ccccc45)cccc3C(=O)N([C@@H](C)CO)C[C@@H]2C)cc1` the protection from cytokine-induced depolarization was -0.543% (inactive).
With `C[C@@H]1CN([C@@H](C)CO)C(=O)c2cccc(NC(=O)Nc3cccc4ccccc34)c2O[C@H]1CN(C)S(=O)(=O)c1cn(C)cn1` the protection from cytokine-induced depolarization was 6.5% (inactive).
In the case of `C[C@@H]1CN([C@@H](C)CO)C(=O)c2cccc(NC(=O)Nc3ccccc3)c2O[C@H]1CN(C)S(=O)(=O)c1ccc(F)cc1`, the protection from cytokine-induced depolarization is reported as 7.91% (inactive).
In the case of `COc1ccc(S(=O)(=O)N(C)C[C@@H]2Oc3c(NC(=O)Nc4c(C)noc4C)cccc3C(=O)N([C@@H](C)CO)C[C@H]2C)cc1`, the protection from cytokine-induced depolarization is reported as 2.03% (inactive).
In the case of `COc1ccc(S(=O)(=O)N(C)C[C@@H]2Oc3c(NC(=O)c4cccc5ccccc45)cccc3C(=O)N([C@@H](C)CO)C[C@H]2C)cc1`, the protection from cytokine-induced depolarization is reported as 4.73% (inactive).
With `C[C@@H]1CN([C@@H](C)CO)C(=O)c2cccc(NC(=O)Nc3cccc4ccccc34)c2O[C@H]1CN(C)S(=O)(=O)c1ccc(F)cc1` the protection from cytokine-induced depolarization was 4.49% (inactive).
For `COc1ccc(S(=O)(=O)N(C)C[C@@H]2Oc3c(NC(=O)Nc4cccc5ccccc45)cccc3C(=O)N([C@@H](C)CO)C[C@H]2C)cc1C`, the protection from cytokine-induced depolarization was -8.34% (inactive).
With `C[C@@H]1CN([C@@H](C)CO)C(=O)c2cccc(NC(=O)Nc3cccc4ccccc34)c2O[C@H]1CN(C)C(=O)NC1CCCCC1` the protection from cytokine-induced depolarization was -6.42% (inactive).
With `C[C@@H]1CN([C@@H](C)CO)C(=O)c2cccc(NC(=O)Nc3cccc4ccccc34)c2O[C@H]1CN(C)CC1CC1` the protection from cytokine-induced depolarization was 10.5% (inactive).
With `COc1ccc(S(=O)(=O)N(C)C[C@@H]2Oc3c(NC(=O)c4cc(C)nn4C)cccc3C(=O)N([C@@H](C)CO)C[C@H]2C)cc1` the protection from cytokine-induced depolarization was 1.8% (inactive).
In the case of `C[C@@H]1CN([C@H](C)CO)C(=O)c2cccc(NC(=O)Nc3cccc4ccccc34)c2O[C@H]1CN(C)S(=O)(=O)c1ccc(Cl)cc1`, the protection from cytokine-induced depolarization is reported as 4.01% (inactive).
With `COc1cccc(S(=O)(=O)N(C)C[C@@H]2Oc3c(NC(=O)Nc4cccc5ccccc45)cccc3C(=O)N([C@@H](C)CO)C[C@H]2C)c1` the protection from cytokine-induced depolarization was 5.29% (inactive).
In the case of `C[C@@H]1CN([C@@H](C)CO)C(=O)c2cccc(NC(=O)Nc3cccc4ccccc34)c2O[C@H]1CN(C)S(=O)(=O)c1cccc(F)c1`, the protection from cytokine-induced depolarization is reported as -9.88% (inactive).
In the case of `COc1ccc(S(=O)(=O)N(C)C[C@@H]2Oc3c(NC(=O)Nc4cccc5ccccc45)cccc3C(=O)N([C@H](C)CO)C[C@@H]2C)cc1`, the protection from cytokine-induced depolarization is reported as -2.94% (inactive).
For `COc1ccc(S(=O)(=O)N(C)C[C@@H]2Oc3c(NS(=O)(=O)c4ccc(F)cc4)cccc3C(=O)N([C@@H](C)CO)C[C@H]2C)cc1`, the protection from cytokine-induced depolarization was -3.26% (inactive).
With `C[C@@H]1CN([C@@H](C)CO)C(=O)c2cccc(NC(=O)Nc3ccccc3)c2O[C@H]1CN(C)S(=O)(=O)c1ccc(Cl)cc1` the protection from cytokine-induced depolarization was 17.7% (inactive).
In the case of `C[C@@H]1CN([C@@H](C)CO)C(=O)c2cccc(NC(=O)Nc3cccc4ccccc34)c2O[C@H]1CN(C)C(=O)Nc1ccc(F)cc1`, the protection from cytokine-induced depolarization is reported as 9.03% (inactive).
With `COc1ccc(S(=O)(=O)N(C)C[C@@H]2Oc3c(NS(=O)(=O)c4ccc(Cl)cc4)cccc3C(=O)N([C@@H](C)CO)C[C@H]2C)cc1` the protection from cytokine-induced depolarization was -6.3% (inactive).

— PubChem BioAssay AID488867 (Broad Institute, 2010)
